# Where “and” joins values, the source holds several entries; their conditions need not be identical. Equal values may be shown once.
# Target: T1, DrOTOP1 L385W (Danio rerio, UniProt Q7ZWK8, L385W)
# T1 construct: A previously generated codon-optimized full-length DrOTOP1[8]; (UniProt: Q7ZWK8) construct; expressed in transfected cells; host or cells: HEK-293 (CRL-1573, ATCC)
# T1 sequence (Q7ZWK8 1-586 L385W): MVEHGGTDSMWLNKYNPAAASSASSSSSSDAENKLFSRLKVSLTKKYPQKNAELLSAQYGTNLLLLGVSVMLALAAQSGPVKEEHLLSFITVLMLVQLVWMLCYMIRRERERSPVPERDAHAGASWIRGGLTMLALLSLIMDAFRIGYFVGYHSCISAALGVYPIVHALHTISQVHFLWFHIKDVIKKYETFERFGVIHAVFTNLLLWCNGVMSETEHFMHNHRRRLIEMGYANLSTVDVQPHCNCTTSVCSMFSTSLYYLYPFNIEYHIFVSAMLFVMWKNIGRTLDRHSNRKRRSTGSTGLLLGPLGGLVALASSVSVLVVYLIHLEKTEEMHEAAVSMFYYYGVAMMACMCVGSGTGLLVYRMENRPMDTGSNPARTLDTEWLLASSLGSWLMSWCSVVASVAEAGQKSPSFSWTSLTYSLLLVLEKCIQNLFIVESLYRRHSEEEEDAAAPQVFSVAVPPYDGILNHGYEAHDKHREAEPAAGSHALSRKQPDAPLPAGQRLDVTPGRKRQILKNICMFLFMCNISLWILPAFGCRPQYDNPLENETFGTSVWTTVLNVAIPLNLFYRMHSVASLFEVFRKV
# Experiment: Whole-cell patch-clamp, inhibition of acid-evoked currents, DrOTOP1 L385W
# Format: cell-based, zebrafish (Danio rerio)
# Conditions: single cells or mean; for Inhibition of currents: 10 µM
# From the text: To functionally test the significance of the two binding sites identified by cryo-EM, we generated point mutations of DrOTOP1 using the binding poses and conformational changes observed in DrOTOP1_C2.2 to guide our mutations. As per the binding pose that best fits our cryo-EM density, C2.2 forms the following interactions in the outer site: hydrophobic packing against many non-polar residues W126, G130, M133, L134, F271, F570, and M573, and π-stacking with W532 (Fig. 5A). In addition, C2.2 could potentially form H-bonds with E267, if the sidechain is protonated or a water bridge is present, and with H574 if it moves closer (Fig. 5A). Likewise, C2.36 presents a heterocyclic nitrogen that can potentially form a H-bond with E267, similarly, provided a protonation or water bridge is present (Fig. 5B). In addition, C2.36 forms a T-shaped π-stacking interaction with H574, whose sidechain has rotated 90 degrees (compared to DrOTOP1_apo), presumably to accommodate the interaction (Fig. 5B). Considering other inhibitors discovered from the second round of screening, many contain functional groups like the carbonyl groups of Group 1 molecules and the heterocyclic nitrogen atoms of Group 2 molecules (Supplementary Fig. 3E), that can potentially form similar H-bonds with E267 as C2.2 and C2.36, assuming the binding modes are similar. In the central site, C2.2 binds with the following interactions: hydrophobic packing with residues V201, F271, A274, V278, and A388, π-stacking with F277, and H-bonding with E384 (Fig. 5C).
# We next tested mutations of the central site (L205W, A274W, F277A, E384A L385W, A388W). V201W and S389W, two additional central site mutations, were excluded from the study due to complete loss of channel activity. […]
# Whole-cell patch-clamp recording was performed as previously described[6],[22],[25]. Recordings were made with an Axopatch 200B amplifier, digitized with a Digidata 1322a 16-bit data acquisition system, acquired with pClamp 8.2 and analyzed with Clampfit 10 (Molecular Devices). […]
smiles,measurement,setting,value
C=C(C)COc1ccccc1NC(=O)c1nc[nH]c1C [C2.2],Inhibition of currents,mean,74.03%
same,Inhibition of currents,single cells,74.8228% and 76.1135% and 70.5882% and 77.6399%
same,inhibition at 10 µM,,71%

# Source: article PMC12549899 (Nature Communications, 2025)
